Target: D(1A) dopamine receptor (Rattus norvegicus) (UniProt P18901)
Details: Striatum
Description: Affinity towards dopamine receptor D1 in rat corpus striatum tissue.

Chain of D(1A) dopamine receptor (Rattus norvegicus) (P18901 whole entry): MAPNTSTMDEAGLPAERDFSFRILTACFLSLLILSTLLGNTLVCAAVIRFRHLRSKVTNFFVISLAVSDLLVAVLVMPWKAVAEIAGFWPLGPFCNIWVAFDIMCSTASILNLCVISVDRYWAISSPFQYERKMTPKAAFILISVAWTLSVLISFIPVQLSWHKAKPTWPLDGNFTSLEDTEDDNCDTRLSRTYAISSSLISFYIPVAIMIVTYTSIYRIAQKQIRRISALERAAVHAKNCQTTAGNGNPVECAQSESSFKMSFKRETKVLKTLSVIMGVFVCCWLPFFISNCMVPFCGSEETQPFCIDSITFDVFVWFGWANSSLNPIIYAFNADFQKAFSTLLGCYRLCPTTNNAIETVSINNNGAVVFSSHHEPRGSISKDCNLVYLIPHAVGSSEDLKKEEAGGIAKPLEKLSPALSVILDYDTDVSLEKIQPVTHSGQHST

Row | SMILES | -Log K0.5
1 | CCCNC1CCc2ccc(O)cc2C1c1ccccc1 (stereo not given) | 6.02
2 | Cc1ccccc1C1c2cc(O)c(Cl)cc2CCN1C (stereo not given) | 8.43
3 | Cc1cccc(C2c3cc(O)c(Cl)cc3CCN2C)c1C (stereo not given) | 8
4 | CNC1CCc2ccc(O)cc2C1c1ccccc1 (stereo not given) | 5.46
5 | Oc1cc2c(cc1Cl)CCN1CCc3ccccc3C21 (stereo not given) | 5.68
6 | CC(C)c1ccccc1C1c2cc(O)c(Cl)cc2CCN1C (stereo not given) | 8.56
7 | CN(C)c1ccccc1CCN1CCc2cc(Cl)c(O)cc2C(c2ccccc2)C1 (stereo not given) | 7.43
8 | CCCN1CCc2cc(Cl)c(O)cc2C1c1ccccc1 (stereo not given) | 7.05
9 | CCCN(C)C1CCc2ccc(O)cc2C1c1ccccc1 (stereo not given) | 5.82
10 | NC1CCc2ccc(O)cc2C1c1ccccc1 (stereo not given) | 5.53
11 | CN1CCc2cc(Cl)c(O)cc2[C@@H](c2ccccc2)C1 | 9.4
12 | Cc1cccc(C2c3cc(O)c(Cl)cc3CCN2C)c1 (stereo not given) | 8.38
13 | CN(C)c1ccccc1/C=C/N1CCc2cc(Cl)c(O)cc2C(c2ccccc2)C1 (stereo not given) | 7.54
14 | CN(C)C1CCc2ccc(O)cc2C1c1ccccc1 (stereo not given) | 5.85
15 | CN(C)CCCCCCN1CCc2cc(Cl)c(O)cc2C(c2ccccc2)C1 (stereo not given) | 6.94
16 | CN1CCc2cc(Cl)c(O)cc2C1Cc1ccccc1 (stereo not given) | 7.24
17 | Cc1ccc(C2c3cc(O)c(Cl)cc3CCN2C)cc1 (stereo not given) | 8.28
18 | CN1CCc2ccc(O)cc2C1c1ccccc1 (stereo not given) | 6.37
19 | CN1CCc2cc(Cl)c(O)cc2C1c1ccccc1 (stereo not given) | 8.28
20 | CN1CCc2cc(Br)c(O)cc2C1c1ccccc1 (stereo not given) | 7.97
21 | CN1CCc2cc(Cl)c(O)cc2C2c3ccccc3CCC21 (stereo not given) | 8.3
22 | CN1CCc2ccccc2C2c3cc(O)c(I)cc3CCC21 (stereo not given) | 5.96
23 | CNCCCCCCN1CCc2cc(Cl)c(O)cc2C(c2ccccc2)C1 (stereo not given) | 6.86
24 | Cc1cccc(C)c1C1c2cc(O)c(Cl)cc2CCN1C (stereo not given) | 8.43
25 | CN1CCc2cc(Cl)c(O)cc2C1c1ccccc1Cl (stereo not given) | 8.43

From ChEMBL document CHEMBL1132350, “Quantitative structure-activity relationship modeling of dopamine D(1) antagonists using comparative molecular field analysis, genetic algorithms-partial least-squares, and K nearest neighbor methods” (J Med Chem, 1999)
